Test results taken from patent EP0522502A1, “Inhibitors of sucrase activity from tea” (MITSUI NORIN CO., LTD., priority 1991, dated 1993).

What was measured:
Sucrase = target: T1, Sucrase (Rattus norvegicus, UniProt P23739); experiment: Sucrase activity inhibition (Dahlquist enzyme preparation, Bernfeld sugar determination); type: biochemical, Wistar rats; conditions: for Inhibition (%): final concentration of 5x10⁻⁴ M, substrate 60mM sucrose solution, 37 °C for 15 minutes, control (distilled water) = 100% activity; for sucrase activity inhibiting capacity: verbal summary of Table 1, 5x10⁻⁴ M
T1 construct: Sucrase was prepared from the mucous membrane of the small intestines of Wistar rats; from tissue; host or cells: mucous membrane of the small intestine of Wistar rats
Protocol: The value thus measured was converted into the amount of decomposed sucrose, and the reaction speed was calculated using a standard method. The reaction speed of the control case (where distilled water was added instead of the sample solution) was also obtained in the same manner. Sucrase activity in the control case was calculated to be 100%. The percentage inhibition of the samples, each at a final concentration of 5x10⁻⁴ M, were obtained.

male ICR mice = experiment: Acute toxicity test (LD50 by Van der Waerden method); type: in vivo; conditions: intraabdominal administration
Protocol: An acute toxicity test of the sucrase activity inhibitor of the present invention was carried out using male ICR mice. LD₅₀ was calculated by the Van der Waerden method.

T1 sequence (P23739 whole entry): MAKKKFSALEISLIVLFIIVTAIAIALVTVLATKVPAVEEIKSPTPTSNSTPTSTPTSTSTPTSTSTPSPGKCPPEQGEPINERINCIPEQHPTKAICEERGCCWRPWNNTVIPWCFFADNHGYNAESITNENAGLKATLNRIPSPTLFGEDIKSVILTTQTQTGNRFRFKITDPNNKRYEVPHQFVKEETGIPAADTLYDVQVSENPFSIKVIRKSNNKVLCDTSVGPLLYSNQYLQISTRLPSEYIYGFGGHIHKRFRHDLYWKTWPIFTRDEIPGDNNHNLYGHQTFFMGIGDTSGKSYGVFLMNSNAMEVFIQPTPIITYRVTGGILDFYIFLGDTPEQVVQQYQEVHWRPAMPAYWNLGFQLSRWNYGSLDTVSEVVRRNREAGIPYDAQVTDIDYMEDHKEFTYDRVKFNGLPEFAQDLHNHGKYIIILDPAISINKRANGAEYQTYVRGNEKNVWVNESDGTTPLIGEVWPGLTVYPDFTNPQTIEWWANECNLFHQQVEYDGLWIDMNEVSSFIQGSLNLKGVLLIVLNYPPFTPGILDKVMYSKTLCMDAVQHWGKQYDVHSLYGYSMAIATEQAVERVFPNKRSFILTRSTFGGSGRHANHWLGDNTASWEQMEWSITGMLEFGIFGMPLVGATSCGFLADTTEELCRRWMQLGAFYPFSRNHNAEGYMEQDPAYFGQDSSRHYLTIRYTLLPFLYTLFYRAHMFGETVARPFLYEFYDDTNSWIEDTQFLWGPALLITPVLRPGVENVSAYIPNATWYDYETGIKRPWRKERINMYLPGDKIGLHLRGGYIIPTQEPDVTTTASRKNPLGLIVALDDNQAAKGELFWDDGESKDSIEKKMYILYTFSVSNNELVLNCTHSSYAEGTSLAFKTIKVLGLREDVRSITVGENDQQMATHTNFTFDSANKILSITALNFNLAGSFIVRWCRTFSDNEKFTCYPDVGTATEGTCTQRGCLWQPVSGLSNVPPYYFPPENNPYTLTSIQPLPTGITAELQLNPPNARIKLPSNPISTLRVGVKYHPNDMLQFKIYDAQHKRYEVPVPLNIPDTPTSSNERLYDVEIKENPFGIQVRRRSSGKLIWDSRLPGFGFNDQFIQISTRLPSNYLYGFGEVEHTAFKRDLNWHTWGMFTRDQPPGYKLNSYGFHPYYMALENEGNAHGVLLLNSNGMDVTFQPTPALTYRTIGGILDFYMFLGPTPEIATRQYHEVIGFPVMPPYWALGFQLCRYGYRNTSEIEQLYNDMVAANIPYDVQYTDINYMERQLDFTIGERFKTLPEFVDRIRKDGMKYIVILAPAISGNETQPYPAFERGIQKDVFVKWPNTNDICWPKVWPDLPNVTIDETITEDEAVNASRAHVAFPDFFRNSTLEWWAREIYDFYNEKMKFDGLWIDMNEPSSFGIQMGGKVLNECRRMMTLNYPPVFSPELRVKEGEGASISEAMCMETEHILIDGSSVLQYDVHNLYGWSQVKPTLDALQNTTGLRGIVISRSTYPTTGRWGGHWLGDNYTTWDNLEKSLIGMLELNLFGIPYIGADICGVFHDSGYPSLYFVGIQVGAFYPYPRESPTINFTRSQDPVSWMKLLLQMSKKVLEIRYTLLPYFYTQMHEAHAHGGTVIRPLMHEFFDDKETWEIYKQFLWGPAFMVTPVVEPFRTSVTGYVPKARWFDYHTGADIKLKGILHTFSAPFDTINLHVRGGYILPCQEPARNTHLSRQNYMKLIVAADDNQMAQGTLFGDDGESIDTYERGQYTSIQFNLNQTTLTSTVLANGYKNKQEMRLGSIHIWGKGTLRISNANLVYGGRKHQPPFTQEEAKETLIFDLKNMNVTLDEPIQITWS

| SMILES | Inhibition (%) (Sucrase) | sucrase activity inhibiting capacity (Sucrase) | LD₅₀(reliable limit) (male ICR mice) [mg/kg] |
| --- | --- | --- | --- |
| Oc1cc(O)c2c(c1)O[C@H](c1ccc(O)c(O)c1)[C@@H](O)C2 [(+)Catechin, reference compound] | 13.7 |  |  |
| O=C(O[C@@H]1Cc2c(O)cc(O)cc2O[C@@H]1c1ccc(O)c(O)c1)c1cc(O)c(O)c(O)c1 [Epicatechin Gallate, (-) Epicatechin Gallate] | 62.5 |  |  |
| Oc1cc(O)c2c(c1)O[C@H](c1ccc(O)c(O)c1)[C@H](O)C2 [Epicatechin, (-) Epicatechin] | 14.7 | only slight |  |
| O=C(O[C@@H]1Cc2c(O)cc(O)cc2O[C@@H]1c1cc(O)c(O)c(O)c1)c1cc(O)c(O)c(O)c1 [Epigallocatechin Gallate, (-) Epigallocatechin Gallate] | 78.8 |  | 150 |
| Oc1cc(O)c2c(c1)O[C@H](c1cc(O)c(O)c(O)c1)[C@H](O)C2 [Epigallocatechin, (-) Epigallocatechin] | 17.3 | only slight |  |
| O=c1c(O)cc([C@H]2Oc3cc(O)cc(O)c3C[C@H]2O)cc2c([C@H]3Oc4cc(O)cc(O)c4C[C@H]3O)cc(O)c(O)c12 [Free Theaflavin] | 6.8 | only slight |  |
| O=C(O)c1cc(O)c(O)c(O)c1 [Gallic Acid, reference compound] | 6.7 |  |  |
| O=C(O[C@@H]1Cc2c(O)cc(O)cc2O[C@@H]1c1cc(O)c(=O)c2c(O)c(O)cc([C@H]3Oc4cc(O)cc(O)c4C[C@H]3OC(=O)c3cc(O)c(O)c(O)c3)c2c1)c1cc(O)c(O)c(O)c1 [Theaflavin Digallate] | 95.9 |  |  |
| O=C(O[C@@H]1Cc2c(O)cc(O)cc2O[C@@H]1c1cc(O)c(=O)c2c(O)c(O)cc([C@H]3Oc4cc(O)cc(O)c4C[C@H]3O)c2c1)c1cc(O)c(O)c(O)c1 [Theaflavin Monogallate A] | 45.9 |  |  |
| O=C(O[C@@H]1Cc2c(O)cc(O)cc2O[C@@H]1c1cc(O)c(O)c2c(=O)c(O)cc([C@H]3Oc4cc(O)cc(O)c4C[C@H]3O)cc12)c1cc(O)c(O)c(O)c1 [Theaflavin Monogallate B] | 59.5 |  |  |
